The compounds below were run against USP30 (Homo sapiens (Human), UniProt Q70CQ3) (assay: USP30 biochemical FP (fluorescence polarisation) IC50 assay). Conditions: USP30 biochemical FP or FI IC50 assay (table does not say which per compound); read-out: IC50 range.
Method: In Vitro USP30 FP Inhibition Assay
USP30 Biochemical IC50 Assay
Dilution plates were prepared at 21 times the final concentration (2100 μM for a final concentration of 100 μM) in 50% DMSO in a 96-well polypropylene V-bottom plate (Greiner #651201). A typical 8-point dilution series would be 100, 30, 10, 3, 1, 0.3, 0.1, 0.03 μM final. Reactions were performed in duplicate in black 384 well plates (small volume, Greiner 784076) in a final reaction volume of 21 μl. Either 1 μl of 50% DMSO or diluted compound was added to the plate. USP30 was diluted in reaction buffer (40 mM Tris, pH 7.5, 0.005% Tween 20, 0.5 mg/ml BSA, 5 mM beta-mercaptoethanol) to the equivalent of 0.05 μl/well and 10 μl of diluted USP30 was added to the compound. Enzyme and compound were incubated for 30 min at room temp. Reactions were initiated by the addition of 50 nM of TAMRA labelled peptide linked to ubiquitin via an iso-peptide bond as fluorescence polarisation substrate. Reactions were read immediately after addition of substrate and following a 2 hr incubation at room temperature. Readings were performed on a Pherastar Plus (BMG Labtech). λ Excitation 540 nm; λ Emission 590 nm.

Chain of USP30 (Q70CQ3 57-517): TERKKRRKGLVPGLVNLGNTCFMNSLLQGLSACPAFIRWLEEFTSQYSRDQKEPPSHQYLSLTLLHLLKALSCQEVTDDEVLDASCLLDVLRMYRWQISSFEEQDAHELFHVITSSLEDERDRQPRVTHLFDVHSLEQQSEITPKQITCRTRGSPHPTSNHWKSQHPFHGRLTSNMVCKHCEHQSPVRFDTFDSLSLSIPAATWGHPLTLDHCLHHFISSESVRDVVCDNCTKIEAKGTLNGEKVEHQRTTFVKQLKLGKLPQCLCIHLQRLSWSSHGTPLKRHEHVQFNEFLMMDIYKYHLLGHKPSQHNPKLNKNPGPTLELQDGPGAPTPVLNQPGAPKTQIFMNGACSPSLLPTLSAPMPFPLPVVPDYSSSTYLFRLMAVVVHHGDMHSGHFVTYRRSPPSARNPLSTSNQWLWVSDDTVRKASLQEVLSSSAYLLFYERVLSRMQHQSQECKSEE

Compared with `N#CN1C[C@H](NC(=O)c2ccc(-c3ccccc3)cc2)[C@@H](F)C1` (relative stereo) [Example 176, N-((trans)-1-cyano-4-fluoropyrrolidin-3-yl)-[1,1′-biphenyl]-4-carboxamide], `Cn1cc(-c2ccc(C(=O)N[C@@H]3CCN(C#N)C3)c(F)c2F)cn1` [Example 131, (R)-N-(1-cyanopyrrolidin-3-yl)-2,3-difluoro-4-(1-methyl-1H-pyrazol-4-yl)benzamide] is lower in IC50: 100 to 1000 nM for the first, < 100 nM for the second. The second is the more potent here.

`N#CN1CC[C@@H](NC(=O)c2cc(F)c(N3CCOCC3)cc2F)C1` [Example 144, (R)-N-(1-cyanopyrrolidin-3-yl)-2,5-difluoro-4-morpholinobenzamide] and `Cn1cc(-c2ccc3nc(C(=O)N[C@@H]4CCN(C#N)C4)c(F)n3c2)cn1` [Example 168, (R)-N-(1-cyanopyrrolidin-3-yl)-3-fluoro-6-(1-methyl-1H-pyrazol-4-yl)imidazo [1,2-a]pyridine-2-carboxamide] fall in the same range of IC50: 100 to 1000 nM for the first, 100 to 1000 nM for the second.

`N#CN1CC[C@@H](NC(=O)c2cc(-c3ccc(Cl)cc3)no2)C1` [Example 218, (R)-3-(4-chlorophenyl)-N-(1-cyanopyrrolidin-3-yl)isoxazole-5-carboxamide] and `N#CN1CCC(NC(=O)Nc2ccc(-c3ccccc3)cc2)C1` (stereo not drawn) [Example 254, 1-([1,1′-biphenyl]-4-yl)-3-(1-cyanopyrrolidin-3-yl)urea] cannot be ordered by IC50: < 100 nM for the first, < 100 nM for the second.

First: Cc1noc(C)c1-c1ccc2cc(C(=O)N(C)[C@@H]3CCN(C#N)C3)[nH]c2c1 [Example 262, (R)-N-(1-cyanopyrrolidin-3-yl)-6-(3,5-dimethylisoxazol-4-yl)-N-methyl-1H-indole-2-carboxamide]
Second: (R)-N-(1-cyanopyrrolidin- 3-yl)-2-fluoro-3-(1-methyl- 1H-pyrazol-yl)benzamide [Example 104]
The IC50 of the first is lower: < 100 nM for the first, 100 to 1000 nM for the second. The first is the more potent here.

In the case of “N-((R)-1-cyanopyrrolidin- 3-yl)-((2S,6R)-2,6- dimethylmorpholino)-5- fluoroisonicotinamide [Example 140]”, the IC50 is reported as 100 to 1000 nM.
